The text below walks through data of PubChem BioAssay AID270 (DTP/NCI, 2004).

Molecules are shown by their SMILES. Values joined by “and” are separate entries in the source; they are usually repeats but may differ in a detail not shown here. Equal values may be shown once. Records with an inconclusive call do not appear. Where a SMILES comes first, the peptide text is derived from it. [ ]: non-standard residue; d: D form. The star is where a group is joined. ξ: configuration not given here. ξAsp(βξ-Me) = CC(C(=O)O)C(N)C(=O)O; X4 = CC(N*)C1NC(=O)C2CCCCN2C1=O; ξAbu(3ξ-NH2) = CC(N)C(N)C(=O)O; X3 = CCC(C)CCC/C=C/CC(=O)*

The test system of this test is BDF1 mice, s.c. Lewis lung carcinoma, T/C %. Kind of test: NCI In Vivo Anticancer Drug Screen. Data for tumor model Lewis Lung Carcinoma (subcutaneous) in B6D2F1 (BDF1) mice. In a few lines:
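Tumor-bearing mice were treated with test compound, and either survival or tumor size was recorded. Values are the treated-group measurement divided by that of the vehicle-treated control group.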

Setting [1] is: endpoint: median survival time, dose: 6.25 mg/kg/injection, schedule: Q01DX009 (ip), vehicle: Klucel (hydroxypropylcellulose) (HPC), higher = longer survival.
Where [2] appears, read: endpoint: median survival time, dose: 12.5 mg/kg/injection, schedule: Q01DX009 (ip), vehicle: Klucel (hydroxypropylcellulose) (HPC), higher = longer survival.
The mark [3] stands for this setting: endpoint: median survival time, dose: 50.0 mg/kg/injection, schedule: Q01DX009 (ip), vehicle: Klucel (hydroxypropylcellulose) (HPC), higher = longer survival.
Where [4] appears, read: endpoint: median survival time, dose: 100.0 mg/kg/injection, schedule: Q01DX009 (ip), vehicle: Klucel (hydroxypropylcellulose) (HPC), higher = longer survival.
Where [5] appears, read: endpoint: median survival time, dose: 25.0 mg/kg/injection, schedule: Q01DX009 (ip), vehicle: Klucel (hydroxypropylcellulose) (HPC), higher = longer survival.

As to `O=NN(CCCl)C(=O)Nc1ccc(Br)cc1`, the T/C is, setting by setting: (endpoint: median survival time, dose: 1.25 mg/kg/injection, schedule: Q01DX009 (ip), vehicle: Klucel (hydroxypropylcellulose) (HPC), higher = longer survival) 97 % of control; (endpoint: median survival time, dose: 2.5 mg/kg/injection, schedule: Q01DX009 (ip), vehicle: Klucel (hydroxypropylcellulose) (HPC), higher = longer survival) 101 % of control; (endpoint: median survival time, dose: 5.0 mg/kg/injection, schedule: Q01DX009 (ip), vehicle: Klucel (hydroxypropylcellulose) (HPC), higher = longer survival) 88 % of control; (endpoint: median survival time, dose: 9.4 mg/kg/injection, schedule: Q01DX009 (ip), vehicle: Klucel (hydroxypropylcellulose) (HPC), higher = longer survival) 108 % of control; (endpoint: median survival time, dose: 10.0 mg/kg/injection, schedule: Q01DX009 (ip), vehicle: Klucel (hydroxypropylcellulose) (HPC), higher = longer survival) 102 % of control.
On to `CC1(C)CCC(NC(=O)N(CCF)N=O)CC1`, for which the T/C (endpoint: median survival time, dose: 6.0 mg/kg/injection, schedule: Q01DX009 (ip), vehicle: saline with Tween-80, higher = longer survival) was 97 % of control; the T/C (endpoint: median survival time, dose: 9.0 mg/kg/injection, schedule: Q01DX009 (ip), vehicle: saline with Tween-80, higher = longer survival) was 113 % of control; the T/C (endpoint: median survival time, dose: 20.0 mg/kg/injection, schedule: Q01DX009 (ip), vehicle: saline with Tween-80, higher = longer survival) is 265 % of control; the T/C (endpoint: median survival time, dose: 30.0 mg/kg/injection, schedule: Q01DX009 (ip), vehicle: saline with Tween-80, higher = longer survival) is 236 % of control; the T/C (endpoint: median survival time, dose: 50.0 mg/kg/injection, schedule: Q01DX009 (ip), vehicle: saline with Tween-80, higher = longer survival) is 88 % of control.
For the molecule `CC[CH2][Pb]([CH2]CC)([CH2]CC)[N]1C(=O)c2ccccc2C1=O`, the T/C is 96 % of control (endpoint: median survival time, dose: 3.13 mg/kg/injection, schedule: Q01DX009 (ip), vehicle: Klucel (hydroxypropylcellulose) (HPC), higher = longer survival); 87 % of control under setting [1]; 102 % of control under setting [2].
In the case of `O=NN(CCCl)C(=O)NC1CS(=O)(=O)CS(=O)(=O)C1`, the T/C reads like this: (endpoint: median survival time, dose: 5.3 mg/kg/injection, schedule: Q04DX004 (ip), vehicle: saline with Tween-80, higher = longer survival) 82 % of control; (endpoint: median survival time, dose: 8.0 mg/kg/injection, schedule: Q04DX004 (ip), vehicle: saline with Tween-80, higher = longer survival) 151 % of control; (endpoint: median survival time, dose: 12.0 mg/kg/injection, schedule: Q04DX004 (ip), vehicle: saline with Tween-80, higher = longer survival) 99 % of control; (endpoint: median survival time, dose: 18.0 mg/kg/injection, schedule: Q04DX004 (ip), vehicle: saline with Tween-80, higher = longer survival) 118 % of control.
As for `C=C1C(=O)OC2CC(C)C3(O)CCC(C)(CC(OC(=O)C(C)C)C12)O3` (centres undefined), the T/C by setting is: under setting [3], 92 % of control; under setting [4], 106 % of control.
On to `CCC(C)CCC/C=C/CC(=O)NC(CC(=O)O)C(=O)NC(C(=O)NC(CC(=O)O)C(=O)NCC(=O)NC(CC(=O)O)C(=O)NCC(=O)NC(C(=O)NC(C(=O)N1CCCC1C(=O)NC(C)C1NC(=O)C2CCCCN2C1=O)C(C)C)C(C)N)C(C)C(=O)O` (stereo not drawn) (X3-D[ξAsp(βξ-Me)]DGDG[ξAbu(3ξ-NH2)]VP-X4; configuration not given here), for which the T/C reads like this: (endpoint: median survival time, dose: 100.0 mg/kg/injection, schedule: Q01DX009 (ip), vehicle: saline + alcohol, higher = longer survival) 124 % of control; (endpoint: median survival time, dose: 200.0 mg/kg/injection, schedule: Q01DX009 (ip), vehicle: saline + alcohol, higher = longer survival) 99 % of control.
With `CC[C@@H](C(=O)[C@@H](C)[C@@H](O)[C@H](C)CCc1ccc(C)c(O)c1C(=O)O)[C@H]1O[C@](CC)([C@H]2CC[C@](O)(CC)[C@H](C)O2)C[C@@H]1C`, the T/C was 113 % of control (endpoint: median survival time, dose: 0.78 mg/kg/injection, schedule: Q01DX009 (ip), vehicle: Klucel (hydroxypropylcellulose) (HPC), higher = longer survival); 111 % of control (endpoint: median survival time, dose: 1.56 mg/kg/injection, schedule: Q01DX009 (ip), vehicle: Klucel (hydroxypropylcellulose) (HPC), higher = longer survival); 93 % of control (endpoint: median survival time, dose: 3.12 mg/kg/injection, schedule: Q01DX009 (ip), vehicle: Klucel (hydroxypropylcellulose) (HPC), higher = longer survival); 96 % of control under setting [1]; 96 % of control under setting [5].
As to `COc1ccc2c(Cc3ccccc3)cncc2c1O`, the T/C runs as follows: under setting [2], 90 % of control; under setting [5], 101 % of control; under setting [3], 91 % of control; under setting [4], 101 % of control.
On to `CN(C)CCCN1c2ccccc2Sc2ccc(C(F)(F)F)cc21`, for which the T/C by setting is: (endpoint: mean tumor weight, dose: 12.0 mg/kg/injection, schedule: Q01DX011 (ip), vehicle: saline, higher = larger tumour) 81 % of control; (endpoint: mean tumor weight, dose: 25.0 mg/kg/injection, schedule: Q01DX011 (ip), vehicle: saline, higher = larger tumour) 44 % of control.
Take `N=C(N)N`: the T/C was 114 % of control (endpoint: mean tumor weight, dose: 100.0 mg/kg/injection, schedule: Q01DX011 (ip), vehicle: saline, higher = larger tumour) and 89 % of control (endpoint: mean tumor weight, dose: 200.0 mg/kg/injection, schedule: Q01DX011 (ip), vehicle: saline, higher = larger tumour).
In the case of `COc1cccc(/C=N/C(=S)NC2(C)C3CCC(C3)C2(C)C)c1O` (centres undefined), the T/C (endpoint: median survival time, dose: 6.25 mg/kg/injection, schedule: Q01DX009 (ip), vehicle: olive oil, sesame oil, peanut oil, higher = longer survival) is 98 % of control; the T/C (endpoint: median survival time, dose: 12.5 mg/kg/injection, schedule: Q01DX009 (ip), vehicle: olive oil, sesame oil, peanut oil, higher = longer survival) is 94 % of control; the T/C (endpoint: median survival time, dose: 100.0 mg/kg/injection, schedule: Q01DX009 (ip), vehicle: olive oil, sesame oil, peanut oil, higher = longer survival) is 90 % of control.
Take `CN1c2c(nc(N)[nH]c2=O)NCC1CCNc1ccc(C(=O)NC(CCC(=O)O)C(=O)O)cc1` (centres undefined): the T/C is, setting by setting: (endpoint: median survival time, dose: 268.0 mg/kg/injection, schedule: Q01DX009 (ip), vehicle: saline, higher = longer survival) 120 % of control; (endpoint: median survival time, dose: 400.0 mg/kg/injection, schedule: Q01DX009 (ip), vehicle: saline, higher = longer survival) 116 % of control; (endpoint: median survival time, dose: 400.0 mg/kg/injection, schedule: Q04DX003 (ip), vehicle: saline, higher = longer survival) 103 % of control; (endpoint: median survival time, dose: 600.0 mg/kg/injection, schedule: Q04DX003 (ip), vehicle: saline, higher = longer survival) 116 % of control; (endpoint: median survival time, dose: 800.0 mg/kg/injection, schedule: Q01DX001 (ip), vehicle: saline, higher = longer survival) 98 % of control; (endpoint: median survival time, dose: 900.0 mg/kg/injection, schedule: Q04DX003 (ip), vehicle: saline, higher = longer survival) 106 % of control. The T/C runs as follows: (endpoint: median survival time, dose: 1200.0 mg/kg/injection, schedule: Q01DX001 (ip), vehicle: saline, higher = longer survival) 103 % of control; (endpoint: median survival time, dose: 1800.0 mg/kg/injection, schedule: Q01DX001 (ip), vehicle: saline, higher = longer survival) 110 % of control.
With `N[C@H](C(=O)O)[C@@H]1CC(Cl)=NO1`, the T/C is, setting by setting: (endpoint: median survival time, dose: 2.5 mg/kg/injection, schedule: Q01DX005 (ip), vehicle: saline, higher = longer survival) 92 % of control; (endpoint: median survival time, dose: 5.0 mg/kg/injection, schedule: Q01DX005 (ip), vehicle: saline, higher = longer survival) 67 % of control; (endpoint: median survival time, dose: 10.0 mg/kg/injection, schedule: Q01DX005 (ip), vehicle: saline, higher = longer survival) 111 % of control; (endpoint: median survival time, dose: 20.0 mg/kg/injection, schedule: Q01DX005 (ip), vehicle: saline, higher = longer survival) 62 % of control; (endpoint: median survival time, dose: 25.9 mg/kg/injection, schedule: Q04DX002 (ip), vehicle: saline, higher = longer survival) 114 % of control and 121 % of control; (endpoint: median survival time, dose: 43.2 mg/kg/injection, schedule: Q04DX002 (ip), vehicle: saline, higher = longer survival) 111 % of control and 112 % of control. Also, the T/C by setting is: (endpoint: median survival time, dose: 72.0 mg/kg/injection, schedule: Q04DX002 (ip), vehicle: saline, higher = longer survival) 106 % of control and 107 % of control; (endpoint: median survival time, dose: 200.0 mg/kg/injection, schedule: Q04DX002 (ip), vehicle: saline, higher = longer survival) 100 % of control and 102 % of control; (endpoint: median survival time, dose: 2.5 ml/mouse/injection, schedule: Q01DX005 (ip), vehicle: saline, higher = longer survival) 92 % of control; (endpoint: median survival time, dose: 5.0 ml/mouse/injection, schedule: Q01DX005 (ip), vehicle: saline, higher = longer survival) 68 % of control; (endpoint: median survival time, dose: 10.0 ml/mouse/injection, schedule: Q01DX005 (ip), vehicle: saline, higher = longer survival) 108 % of control.
On to `CCN(C=O)CC`, for which the T/C (endpoint: mean tumor weight, dose: 88.0 mg/kg/injection, schedule: Q01DX011 (ip), vehicle: other, higher = larger tumour) is 89 % of control; the T/C (endpoint: mean tumor weight, dose: 133.0 mg/kg/injection, schedule: Q01DX011 (ip), vehicle: other, higher = larger tumour) was 102 % of control; the T/C (endpoint: mean tumor weight, dose: 200.0 mg/kg/injection, schedule: Q01DX011 (ip), vehicle: other, higher = larger tumour) was 68 % of control; the T/C (endpoint: mean tumor weight, dose: 300.0 mg/kg/injection, schedule: Q01DX011 (ip), vehicle: other, higher = larger tumour) was 87 % of control; the T/C (endpoint: mean tumor weight, dose: 300.0 mg/kg/injection, schedule: Q01DX011 (ip), vehicle: saline, higher = larger tumour) is 65 % of control; the T/C (endpoint: mean tumor weight, dose: 600.0 mg/kg/injection, schedule: Q01DX011 (ip), vehicle: saline, higher = larger tumour) was 62 % of control. For the same molecule, the T/C (endpoint: mean tumor weight, dose: 900.0 mg/kg/injection, schedule: Q01DX011 (ip), vehicle: saline, higher = larger tumour) is 90 % of control.
Turning to `NC(Cc1ccc(N(CCCl)CCCl)cc1)C(=O)O` (centres undefined), the T/C is 75 % of control (endpoint: mean tumor weight, dose: 1.5 mg/kg/injection, schedule: Q01DX011 (ip), vehicle: carboxymethylcellulose (CMC), higher = larger tumour); 52 % of control (endpoint: mean tumor weight, dose: 2.5 mg/kg/injection, schedule: Q01DX011 (ip), vehicle: saline, higher = larger tumour); 50 % of control (endpoint: mean tumor weight, dose: 3.0 mg/kg/injection, schedule: Q01DX011 (ip), vehicle: carboxymethylcellulose (CMC), higher = larger tumour); 32 % of control (endpoint: mean tumor weight, dose: 4.5 mg/kg/injection, schedule: Q01DX011 (ip), vehicle: carboxymethylcellulose (CMC), higher = larger tumour); 33 % of control (endpoint: mean tumor weight, dose: 5.0 mg/kg/injection, schedule: Q01DX011 (ip), vehicle: saline, higher = larger tumour); 3 % of control (endpoint: mean tumor weight, dose: 10.0 mg/kg/injection, schedule: Q01DX011 (ip), vehicle: saline, higher = larger tumour).
